Values after ≈ are worked out from the molar mass of the structure shown. Counter-ions that a name gives are not always drawn. Like-named read-outs stand apart in the source and are kept apart here.
Columns and labels:
[1] = biological target: PRMT5/MEP50 complex (Homo sapiens (Human), UniProt O14744); assay: Biochemical assay: PRMT5/MEP50 methylation of histone H2A with 3H-SAM, filter plate scintillation
Outline: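 5 nM PRMT5/MEP50 preincubated with compound 15–20 min at room temperature, with 5 μM histone H2A as substrate; reaction started with 1 μM 3H-SAM and run 60 min at 30 °C. TCA-stopped, filter-captured methylation counted by scintillation; IC50 from 4-parameter Hill fit.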

[2] = tested on: Symmetric Di-Methyl Arginine (sDMA) in Granta-519 cells; assay: Western blot for symmetric di-methyl arginine (sDMA) marks in Granta cells, 3 days treatment; assay type: cell-based; settings: Homo sapiens, 3 days
[3] = tested on: Granta-519 cells; assay: Cell proliferation assay on Granta-519 cells (CCK-8, day 10); assay type: cell-based; settings: Homo sapiens
Protocol: Cell Proliferation Assay to Determine IC50 on Granta-519 Cells
Granta-519 cells were maintained in PRMI 1640 (Corning Cellgro, Catalog #: 10-040-CV) medium supplemented with 10% v/v FBS (GE Healthcare, Catalog #: SH30910.03). Compounds were dissolved in DMSO to make 10 mM stocks and stored at −20° C. Nine-point, 3-fold serial dilutions were made with DMSO with top concentration at 1 mM (working stocks).
On day of experiment, compound working stocks were further diluted at 1:50 with fresh medium in 96 well plate, and 10 μL of diluted drugs were added to a new 96 well plate for proliferation assay. Cells growing at exponential phase were spun down at 1500 rpm for 4 min and resuspend in fresh medium to reach a density of 0.5×10^6 cells/ml. 200 ul of cells were added to 96 well plate containing diluted drugs and incubated for 3 days. DMSO was used a vehicle control.
One day 3, 10 μL of Cell Counting Kit-8 (CCK-8, Jojindo, CK04-13) solution was added to a new 96 well plate. Cells incubated with drugs for 3 days were resuspended by pipetting up and down, and 100 μL of cells were transferred to 96 well plate containing CCK-8 reagent to measure viable cells. Plates were incubated in C02 incubator for 2 hours and OD450 values were measured with a microplate reader (iMark microplate reader, Bio-Rad).
For re-plating, compound working stocks were diluted at 1:50 with fresh medium and 10 μL of diluted drugs were added to anew 96 well plate. Cells from Day 3plate (50 ul) were added to 96 well plate containing fresh drug and additional 150 of fresh medium was added to reach 200 ul volume. Plate was returned to CO2incubator and incubated for 3more days. Viable cells measurement and re-plating were repeated on day 6, and the final viable cells measurement was taken on day 10.
Percentage of viable cells, relative to DMSO vehicle control, were calculated and plotted in Graphpad Prism ([Inhibitor] vs. normalized response-Variable slope) to determine proliferation IC50 values on day 10.

[4] = physchem; settings: for solubility at 4 h: 25 °C, fassif, thermodynamic from solid
Protocol: Compounds were first dispersed in freshly prepared FaSSIF (http://biorelevant.com/site_media/upload/documents/How_to_make_FaSSIF_FeSSIF_and_FaSSGF.pdf) buffer in 1 mg/mL respectively, and the standard samples were prepared by preparing 1 mg/mL of test compounds in DMSO. The compounds were then sufficient mixed by vortex mixer for 30 sec, and agitated at 25° C. using 300 rpm form 4 hour in thermo mixer. After incubation, the prepared samples were centrifuged at 10000 rpm for 10 min to remove the undissolved solid, the resulting supernatants were applied to HPLC. The actual concentrations of the compounds were evaluated by measuring the peak area, and the solubility (S) of compounds was calculated according to following equation: S=Csmp=Cstd*(Asmp/Astd)*(Vstd/Vsmp) Where C is the sample concentration in μg/mL, A is the peak area, and V is the injection volume.

[5] = In vivo pharmacokinetic study in rat (i.v. and p.o.); settings: blood, rat SD male non-fasted, cassette, N=3
Protocol: In Vivo Pharmacokinetic Properties of Example 36.
In a rat (SD, male, non-fasted) non-crossover cassette PK study, Example 36 was dosed at 0.25 mg/kg via i.v. administration (N=3) and 2 mg/kg via oral gauge (p.o.) (N=3) with other 3 compounds.
In Vivo Pharmacokinetic Properties of Example 92.
In a rat (SD, male, non-fasted) non-crossover PK study, Example 92 was dosed at 1 mg/kg (DMA: 20% HPBCD=5:95, solution) via i.v. administration (N=2) and 1 mg/kg (0.5% Na CMC+0.5% Tween80, solution) via oral gauge (p.o.) (N=2).

[6] = histone H2A 5 μM, SAM 1 μM, enzyme 5 nM, read-out: PRMT5/MEP50 IC50
[7] = 240 h, Granta-519 cell line, read-out: Proliferation IC50

Sequence of PRMT5/MEP50 complex (O14744 whole entry): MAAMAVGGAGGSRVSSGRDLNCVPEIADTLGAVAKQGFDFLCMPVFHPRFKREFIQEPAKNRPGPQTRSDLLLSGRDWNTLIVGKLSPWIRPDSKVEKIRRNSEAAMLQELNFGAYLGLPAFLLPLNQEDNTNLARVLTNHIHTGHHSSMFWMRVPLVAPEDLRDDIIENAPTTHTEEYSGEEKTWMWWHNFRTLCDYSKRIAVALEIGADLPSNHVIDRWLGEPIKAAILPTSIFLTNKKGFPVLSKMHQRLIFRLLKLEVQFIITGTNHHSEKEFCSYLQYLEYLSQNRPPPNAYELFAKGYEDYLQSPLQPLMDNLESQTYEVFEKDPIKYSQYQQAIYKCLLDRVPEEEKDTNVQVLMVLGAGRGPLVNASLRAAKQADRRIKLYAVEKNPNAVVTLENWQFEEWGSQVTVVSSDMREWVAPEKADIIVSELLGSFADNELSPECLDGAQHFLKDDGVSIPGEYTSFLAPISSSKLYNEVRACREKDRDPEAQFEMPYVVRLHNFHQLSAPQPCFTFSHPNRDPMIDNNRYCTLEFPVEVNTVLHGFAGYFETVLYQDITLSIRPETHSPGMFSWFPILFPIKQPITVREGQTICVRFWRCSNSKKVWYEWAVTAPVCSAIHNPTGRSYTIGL
Sequence of PRMT5/MEP50 complex (Q9BQA1 whole entry partner): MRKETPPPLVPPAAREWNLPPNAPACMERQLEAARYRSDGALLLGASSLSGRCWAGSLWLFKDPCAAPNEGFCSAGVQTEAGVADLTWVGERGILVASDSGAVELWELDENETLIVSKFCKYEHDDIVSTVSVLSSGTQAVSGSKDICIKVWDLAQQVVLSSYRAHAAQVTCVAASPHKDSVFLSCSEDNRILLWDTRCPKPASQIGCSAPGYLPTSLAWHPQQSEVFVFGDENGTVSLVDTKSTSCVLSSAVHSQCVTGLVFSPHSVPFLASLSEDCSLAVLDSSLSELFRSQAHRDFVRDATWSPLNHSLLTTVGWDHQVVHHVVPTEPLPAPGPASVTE

| SMILES | IC50 [1, 6] [nM] | IC50 ([2]; 72 h, Granta-519 cell line) [nM] | IC50 [3, 7] [nM] | other results |
| --- | --- | --- | --- | --- |
| CO/N=c1\nc[nH]c2c1ccn2[C@@H]1C[C@H](CCc2ccc3ccc(NCC4CC4)nc3c2)[C@@H](O)[C@H]1O [Example 90-B, 7-((1R,2S,3R,4S)-4-(2-(2-((cyclopropylmethyl)amino)quinolin-7-yl)ethyl)-2,3-dihydroxycyclopentyl)-1,7-dihydro-4H-pyrrolo[2,3-d]pyrimidin-4-one O-methyl oxime] |  |  |  | IC50 ([1]; biochemical potency, read-out: PRTMT5/MEP50 IC50): 0.82 nM; IC50 ([2]; Granta-519, 72 h, Granta cell line): 28 nM; IC50 ([3]; Granta-519, 240 h, Granta cell line, read-out: Prolif. IC50): 229 nM |
| CO/N=c1\[nH]cnc2c1ncn2[C@@H]1O[C@H]([C@](C)(O)c2ccc(Cl)c(Cl)c2)[C@@H](O)[C@H]1O [Example 92A, (2S,3S,4R,5R)-2-[(1R)-1-(3,4-dichlorophenyl)-1-hydroxy-ethyl]-5-[(6Z)-6-methoxyimino-1H-purin-9-yl]tetrahydrofuran-3,4-diol] |  |  |  | solubility at 4 h [4]: 54.7 µg/mL (≈ 120 µM) |
| CCO/N=c1/nc[nH]c2c1ccn2[C@@H]1O[C@H]([C@](C)(O)c2ccc(Cl)c(Cl)c2)[C@@H](O)[C@H]1O [Example 99, 7-((2R,3R,4S,5S)-5-((R)-1-(3,4-dichlorophenyl)-1-hydroxyethyl)-3,4-dihydroxytetrahydrofuran-2-yl)-1,7-dihydro-4H-pyrrolo[2,3-d]pyrimidin-4-one O-ethyl oxime] | 2.4 | 8.4 | 94 |  |
| O[C@@H]1[C@H](O)[C@@H]([C@H](O)c2ccc(Cl)c(Cl)c2)O[C@H]1n1ccc2/c(=N/OCC(F)(F)F)nc[nH]c21 [Example 103, 7-((2R,3R,4S,5R)-5-((R)-(3,4-dichlorophenyl)(hydroxy)methyl)-3,4-dihydroxytetrahydrofuran-2-yl)-1,4a,7,7a-tetrahydro-4H-pyrrolo[2,3-d]pyrimidin-4-one 0-(2,2,2-trifluoroethyl) oxime] | 29.6 | 57.9 | 62 |  |
| C[C@@](O)(c1ccc(Cl)c(Cl)c1)[C@H]1O[C@@H](n2cnc3/c(=N/O)nc[nH]c32)[C@H](O)[C@@H]1O [Example 108, 9-((2R,3R,4S,5S)-5-((R)-1-(3,4-dichlorophenyl)-1-hydroxyethyl)-3,4-dihydroxytetrahydrofuran-2-yl)-3,9-dihydro-6H-purin-6-one oxime] |  | 131 | 415 | IC50 [1]: 9.6 nM |
| CC(=O)CC(c1ccccc1)c1c(O)c2ccccc2oc1=O (stereo not drawn) [Warfarin, reference compound] |  |  |  | FaSSIF solubility of positive controls ([4]; positive controls in this experiment): 10 to 25 µg/mL |
| N/N=c1/nc[nH]c2c1ccn2[C@@H]1O[C@H]([C@H](O)c2ccc(Cl)cc2)[C@@H](O)[C@H]1O [compound 20, 7-[(2R,3R,4S,5R)-5-[(R)-(4-chlorophenyl)-hydroxy-methyl]-3,4-dihydroxy-tetrahydrofuran-2-yl]-1H-pyrrolo[2,3-d]pyrimidin-4-one hydrazone] | 0.6 | 120000 | 98 |  |
| CO/N=c1/nc[nH]c2c1ccn2[C@@H]1O[C@H]([C@H](O)c2ccc(Cl)cc2)[C@@H](O)[C@H]1O [compound 36, (2R,3S,4R,5R)-2-[(R)-(4-chlorophenyl)-hydroxy-methyl]-5-(-4-methoxyimino-1H-pyrrolo[2,3-d]pyrimidin-7-yl]tetrahydrofuran-3,4-diol] | 17300 | 102000 | 144 | solubility at 4 h [4]: 912 µg/mL (≈ 2240 µM); clearance ([5]; iv, i.v. 0.25 mg/kg): 12.3 mL/min/kg; half-life ([5]; iv, i.v. 0.25 mg/kg, read-out: T1/2 (printed T2) (converted)): 1.2 h; Vd ([5]; iv, i.v. 0.25 mg/kg, read-out: Vss): 1.1 L/kg; bioavailability ([5]; po, p.o. 2 mg/kg): > 120% |
| O/N=c1/nc[nH]c2c1ccn2[C@@H]1O[C@H]([C@H](O)c2ccc(Cl)cc2)[C@@H](O)[C@H]1O [compound 37, 7-[(2R,3R,4S,5R)-5-[(R)-(4-chlorophenyl)-hydroxy-methyl]-3,4-dihydroxy-tetrahydrofuran-2-yl]-1H-pyrrolo[2,3-d]pyrimidin-4-one oxime hydrochloride] | 2.4 | 8 | 22 |  |
| CO/N=c1\nc[nH]c2c1ccn2[C@@H]1O[C@H]([C@](C)(O)c2ccc(Cl)c(Cl)c2)[C@@H](O)[C@H]1O [compound 61, 7-((2R,3R,4S,5S)-5-((R)-1-(3,4-dichlorophenyl)-1-hydroxyethyl)-3,4-dihydroxytetrahydrofuran-2-yl)-1,7-dihydro-4H-pyrrolo[2,3-d]pyrimidin-4-one O-methyl oxime] | 2.6 | 33 | 47 |  |
| CO/N=c1/nc[nH]c2c1ccn2[C@@H]1O[C@H]([C@H](O)c2ccc(Cl)c(F)c2)[C@@H](O)[C@H]1O [compound 62, 7-((2R,3R,4S,5R)-5-((R)-(4-chloro-3-fluorophenyl)(hydroxy)methyl)-3,4-dihydroxytetrahydrofuran-2-yl)-1,7-dihydro-4H-pyrrolo[2,3-d]pyrimidin-4-one O-methyl oxime] | 8.6 | 45 | 63 |  |
| CO/N=c1\nc[nH]c2c1ccn2[C@@H]1O[C@H]([C@H](O)c2ccc(Cl)c(Cl)c2)[C@@H](O)[C@H]1O [compound 69, 7-((2R,3R,4S,5R)-5-((R)-(3,4-dichlorophenyl)(hydroxy)methyl)-3,4-dihydroxytetrahydrofuran-2-yl)-1,7-dihydro-4H-pyrrolo[2,3-d]pyrimidin-4-one O-methyl oxime hydrochloride] | 1.8 | 28 | 32 |  |
| CO/N=c1\nc[nH]c2c1ccn2[C@@H]1O[C@H]([C@H](O)c2ccc(F)c(F)c2)[C@@H](O)[C@H]1O [compound 70, 7-((2R,3R,4S,5R)-5-((R)-(3,4-difluorophenyl)(hydroxy)methyl)-3,4-dihydroxytetrahydrofuran-2-yl)-1,7-dihydro-4H-pyrrolo[2,3-d]pyrimidin-4-one O-methyl oxime] | 10.2 | 48 | 130 |  |
| CCO/N=c1/[nH]cnc2c1ccn2[C@@H]1O[C@H]([C@H](O)c2ccc(Cl)c(Cl)c2)[C@@H](O)[C@H]1O [compound 82, 7-((2R,3R,4S,5R)-5-((R)-(3,4-dichlorophenyl)(hydroxy)methyl)-3,4-dihydroxytetrahydrofuran-2-yl)-3,7-dihydro-4H-pyrrolo[2,3-d]pyrimidin-4-one O-ethyl oxime] | 3.9 | 11 |  |  |

Reference: patent US11220524B2, “Selective inhibitors of protein arginine methyltransferase 5 (PRMT5)” (PRELUDE THERAPEUTICS, INCORPORATED, priority 2017, dated 2022)
